Data set [1] is described as follows: Prodrug stability assay in bio-relevant media (FaSSIF with Pancreatin, simulated gastrointestinal tract conditions). To be noted: % parent prodrug remaining at 5 h vs 0 h, 37° C., 0.5 mg/mL Pancreatin in FaSSIF, HPLC area ratio. Format: in vitro ADME. How it is done:
Prodrug Stability Assay in Bio-Relevant Media
The following assay was employed to evaluate the stability of the prodrugs in simulated gastrointestinal tract conditions. Preparation of fasted state simulated intestinal fluid (FaSSIF) using Phares SIF Powder was carried out according to protocols from Phare Drug Delivery AG (Baselland, Switzerland). For sample preparation, 10 μL stock solutions (10 mM) of prodrug substance in DMSO was added to 990 μL of 0.5 mg/mL Pancreatin solution (Fisher CAS#8049-47-6) in FaSSIF. Two samples were prepared for each compound at initial. If the sample was clear solution at the beginning, ran one sample directly as initial by HPLC; if the sample was not clear at starting, diluted the sample by 100% ACN. Put the other sample under 37° C. and observed the sample at 5 h time-point. At 5 h time point, if the sample was clear solution then performed HPLC analysis directly; if it was not clear solution, diluted the sample by 100% ACN and assayed by HPLC. All the samples were vortexed for 3 min and observed before injection. For the diluted samples, the area will be multiplied by a factor when data analysis. The analysis was carried out with an Agilent 1100 series HPLC with autosampler. The column was usually a Poroshell 120 EC -C18, 4.6×50 mm, 2.7 μm. The flow rate was 1.8 mL/min, and the injection volume was 5 or 10 μL. UV detection was in the range 210-400 nm. The mobile phase consisted of solvent A (water plus 10 mM tetrabutylammonium bromide) and solvent B (acetonitrile) with a gradient of 90% solvent A at 0 min changing to 95% solvent B over 6 min, maintained for 1.5 min, then reverting to 90% solvent A over 1.6 min. The area of the parent in prodrug at 5h time point was divided by the area of the parent in prodrug at 0 h time point, to generate the % claimed parent ratio, which are summarized in Table 2 for GI Tract stability.

The next data set relates to HIV-1 (H9/IIIB strain). As to the kind of experiment: Multiple round HIV-1 infection assay (Viking assay) in MT4-GFP cells. It is filed as cell-based. To be noted: MT4-GFP cells infected with HIV-1 H9/IIIB, inhibition of reproductive ratio R0. The procedure, abridged: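 MT4-gag-GFP cells infected overnight with HIV-1 H9/IIIB at MOI ~0.01, then incubated with compound (10-point 3-fold dilutions, typically 8.4 μM–0.42 nM) in RPMI with 10% or 50% normal human serum. Green cells counted at ~48 and ~72 h; IC50 from inhibition of reproductive ratio R0, 4-parameter fit.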

[2] abbreviates: 10% normal human serum, read-out: Viking, IC50 (10% NHS).
[3] abbreviates: 50% normal human serum, read-out: Viking, IC50 (50% NHS).
Where [4] appears, read: Human immunodeficiency virus 1, IIIB, 10% normal human serum, read-out: Viking, IC50 (10% NHS).
Where [5] appears, read: Human immunodeficiency virus 1, IIIB, 50% normal human serum, read-out: Viking, IC50 (50% NHS).

Structures are written as SMILES. Read-outs that look alike come from different tables or passages of the source.

With `CC(C)OC(=O)C(C)(C)NP(=O)(CO[C@H](C)Cn1cnc2c(N)ncnc21)O[C@@H](C)C(=O)OC1CCCC1` (single isomer, unassigned) [Example 13B], the “GI Tract stability” value in data set [1] is listed as 99.72%. The figures for the IC50 in the data set with HIV-1 (H9/IIIB strain) (setting [2]) and in the data set on HIV-1 (H9/IIIB strain) (setting [3]) were 9.44 nM and 60.2 nM, respectively.

As to `CC(C)OC(=O)[C@H](C)OP(=O)(CO[C@H](C)Cn1cnc2c(N)ncnc21)NC(C)(C)C(=O)OC1CCCCC1` (single isomer, unassigned) [Example 12A], the “GI Tract stability” value in data set [1] is 98.95%. The IC50 was 5.71 nM with HIV-1 (H9/IIIB strain) (setting [4]) and 25.2 nM in the data set with HIV-1 (H9/IIIB strain) (setting [5]).

As to `CC(C)COC(=O)C(C)(C)NP(=O)(CO[C@H](C)Cn1cnc2c(N)ncnc21)O[C@@H](C)C(=O)OC(C)C` (stereo partly drawn) [Example 31, Isobutyl 2-((((((R)-1-(6-amino-9H-purin-9-yl)propan-2-yl)oxy)methyl)(((S)-1-isopropoxy-1-oxopropan-2-yl)oxy)phosphoryl)amino)-2-methylpropanoate], the “GI Tract stability” value in data set [1] was 85.48%. For the same compound, the results for the IC50 in the data set on HIV-1 (H9/IIIB strain) (setting [4]) and in the data set with HIV-1 (H9/IIIB strain) (setting [5]) were 2.39 nM and 7.57 nM, respectively.

Turning to `CC(C)OC(=O)COP(=O)(CO[C@H](C)Cn1cnc2c(N)ncnc21)NC(C)(C)C(=O)OCc1ccccc1` (mixture of isomers) [Example 42, Benzyl 2-((((((R)-1-(6-amino-9H-purin-9-yl)propan-2-yl)oxy)methyl)(2-isopropoxy-2-oxoethoxy)phosphoryl)amino)-2-methylpropanoate], the “GI Tract stability” value in data set [1] was 73.54%. The IC50 with HIV-1 (H9/IIIB strain) (setting [4]) came to 5 nM; in the data set on HIV-1 (H9/IIIB strain) (setting [5]), 21.8 nM.

For the compound `CC(C)OC(=O)[C@H](C)OP(=O)(CO[C@H](C)Cn1cnc2c(N)ncnc21)NC1(C(=O)OC(C)C)CC1` (stereo partly drawn) [Example 47, Isopropyl 1-((((((R)-1-(6-amino-9H-purin-9-yl)propan-2-yl)oxy)methyl)(((S)-1-isopropoxy-1-oxopropan-2-yl)oxy)phosphoryl)amino) cyclopropane-1-carboxylate], the “GI Tract stability” value in data set [1] is on record as 93.55%. Further, the IC50 in the data set on HIV-1 (H9/IIIB strain) (setting [4]) is 91.6 nM; in the data set on HIV-1 (H9/IIIB strain) (setting [5]), 209 nM.

For the compound `CCCCCOC(=O)C(C)(C)NP(=O)(CO[C@H](C)Cn1cnc2c(N)ncnc21)OCC(=O)OC1CCCC1` (stereo partly drawn) [Example 36, Pentyl 2-((((((R)-1-(6-amino-9H-purin-9-yl)propan-2-yl)oxy)methyl)(2-(cyclopentyloxy)-2-oxoethoxy)phosphoryl)amino)-2-methylpropanoate], in data set [1], the “GI Tract stability” value was 88.87%. Moreover, the IC50 in the data set with HIV-1 (H9/IIIB strain) (setting [4]) was 2.39 nM; with HIV-1 (H9/IIIB strain) (setting [5]), 6.04 nM.

As for `CCCOC(=O)C(C)(C)NP(=O)(CO[C@H](C)Cn1cnc2c(N)ncnc21)O[C@H](C)C(=O)OC(C)C` (stereo partly drawn) [Example 23, Propyl 2-((((((R)-1-(6-amino-9H-purin-9-yl)propan-2-yl)oxy)methyl)(((R)-1-isopropoxy-1-oxopropan-2-yl)oxy)phosphoryl)amino)-2-methylpropanoate], the “GI Tract stability” value in data set [1] is reported as 4.28%. Also, the IC50 in the data set on HIV-1 (H9/IIIB strain) (setting [4]) was found to be 2.67 nM; in the data set on HIV-1 (H9/IIIB strain) (setting [5]), 8.19 nM.

With `CC(C)OC(=O)[C@H](C)OP(=O)(CO[C@H](C)Cn1cnc2c(N)ncnc21)NC(C)(C)C(=O)OC1CCCC1` (single isomer, unassigned) [Example 18B], the “GI Tract stability” value in data set [1] is given as 91.31%. Besides, the IC50 came to 2.69 nM with HIV-1 (H9/IIIB strain) (setting [2]) and 8.77 nM in the data set with HIV-1 (H9/IIIB strain) (setting [3]).

For `CC(C)OC(=O)COP(=O)(CO[C@H](C)Cn1cnc2c(N)ncnc21)NC1(C(=O)OC(C)C)CC1` (stereo partly drawn) [Example 46, Isopropyl 1-((((((R)-1-(6-amino-9H-purin-9-yl)propan-2-yl)oxy)methyl)(2-isopropoxy-2-oxoethoxy)phosphoryl)amino) cyclopropane-1-carboxylate], in data set [1], the “GI Tract stability” value is listed as 98.18%. Moreover, the IC50 is 386 nM in the data set with HIV-1 (H9/IIIB strain) (setting [4]) and 703 nM in the data set with HIV-1 (H9/IIIB strain) (setting [5]).
